First: Cc1ccc2c(c1)c(Cc1nc3cc(C(F)(F)F)ccc3s1)cn2CC(=O)O
Second: N#CCCc1cccc(-c2nc(=O)c3ccccc3s2)n1
The melting point of the first is higher: 248 to 249 °C for the first, 157 °C for the second.

Compared with O=C1CCC(N2Cc3c(OCc4ccc(CCN5CCOCC5)cc4)cccc3C2=O)C(=O)N1 (stereo unspecified), O=C(NOCc1ccccc1)c1ccc(CNC(=O)c2cn3c4c(cccc24)CCC3)cc1 is higher in melting point: 230 to 232 °C for the first, 234 to 235 °C for the second.

Compared with C1COCCN2CCOCCOCCN(CCO1)CCSCCSCC2, Cc1cc(C)c(Nc2nc(C)ncc2S(=O)(=O)c2ccc(N3CCOCC3)cc2)c(C)c1 is higher in melting point: 78 to 80 °C for the first, 221 to 223 °C for the second.

Compared with O=C(O)CN1C(=O)N(Cc2cccc([N+](=O)[O-])c2)C(=O)C1O (stereo unspecified), O=C1CCc2c1cccc2[N+](=O)[O-] is lower in melting point: 153 to 155 °C for the first, 94 to 97 °C for the second.

Compared with CCCCCCCCCCCCCCCCCC(O)C[N+](=O)[O-] (stereo unspecified), CCCCCCCCCCCCCCCC(=O)C(O)(O)C(=O)OC(C)(C)C is lower in melting point: 55 to 56 °C for the first, 49 to 51 °C for the second.

First: COC(=O)[C@H](Cc1ccc(OCCc2nc(-c3ccccc3)oc2C)cc1)Nc1ccccc1C(=O)c1ccccc1
Second: COC(=O)N[C@@H](Cc1ccc(OCc2ccccc2)cc1)C(=O)Nc1c(C(C)C)cccc1C(C)C
The melting point of the first is lower: 55 to 60 °C for the first, 179 to 182 °C for the second.

First: CCOC(=O)c1snc(CO)c1N
Second: CCOC(=O)c1sc(Cl)nc1C(Cl)(Cl)Cl
The melting point of the first is higher: 82 to 85 °C for the first, 42.5 to 43.5 °C for the second.

First: CC(C)c1cc(-c2ccc(F)cc2)nc(N(C)S(C)(=O)=O)n1
Second: COc1cc(O)ccc1-c1nc(C)c(-c2cccnc2)[nH]1
The melting point of the first is lower: 138 to 139 °C for the first, 237 to 240 °C for the second.

First: CCCCCCCCCCC(O)C[N+]1([O-])CCOCC1 (stereo unspecified)
Second: O=c1cc(-c2ccccc2)oc2cc(OCC(O)CCCOC3CCCCO3)ccc12 (stereo unspecified)
The melting point of the first is higher: 151 to 152 °C for the first, 110 to 112 °C for the second.

Compared with O=c1cc(-c2ccccc2)[nH]c(=S)[nH]1, CCOC(=O)c1nn(-c2ccc(C)cc2)nc1-c1ccccc1 is lower in melting point: 266 to 267 °C for the first, 74 to 75 °C for the second.

First: CCN(C/C=C/C#CC(C)(C)C)Cc1cccc(N2C(=O)c3ccccc3C2=O)c1
Second: CCOc1cc(C2=NN(c3ccccc3)C(=O)[C@H]3CC=CC[C@@H]23)ccc1OC (relative stereo)
The melting point of the first is lower: 65 to 66 °C for the first, 97 to 99 °C for the second.

Compared with CC(=O)c1cc(C(F)(F)F)cc(S(N)(=O)=O)c1, O=S(=O)(c1cnn(-c2c(Cl)cc(C(F)(F)F)cc2Cl)c1-n1cccn1)C(F)(F)F is lower in melting point: 157 to 159 °C for the first, 127 to 133 °C for the second.

First: Cc1c(C)c2c(c(C)c1N)C(=O)C(C)(C)O2
Second: COC1CCc2c(C)c(O)c(C)c(C)c2O1 (stereo unspecified)
The melting point of the first is lower: 92 to 93 °C for the first, 108 to 110 °C for the second.

First: COC(=O)C(N)Cc1ccc(OCCN(C)c2nc3ccccc3o2)cc1 (stereo unspecified)
Second: CN(CCCOC(=O)Cc1ccccc1Nc1c(Cl)cccc1Cl)CC1(SN=O)CCCCC1
The melting point of the first is higher: 95 to 96 °C for the first, 58 to 60 °C for the second.

Compared with N#Cc1cccc(-c2nc(N3CCC(CC(=O)O)CC3)cc3cccnc23)c1, Clc1ccc(-c2cc(C3CCN(Cc4ccc(Cl)c(Cl)c4)CC3)n[nH]2)cc1 is lower in melting point: 178 to 180 °C for the first, 171 to 174 °C for the second.

First: OCCC(O)(c1ccc(Br)cc1)c1cccnc1 (stereo unspecified)
Second: O=C(O)CCC(=O)c1ccc(NC(=O)c2ccc(F)cc2)cc1
The melting point of the first is lower: 130 to 132 °C for the first, 253 to 255 °C for the second.

First: O=C(Nc1ccccc1O)c1nnn[nH]1
Second: COC(=O)C1=C(C)NN=C(c2cccc(Cl)c2)C1c1cccc(Cl)c1 (stereo unspecified)
The melting point of the first is higher: 220 to 223 °C for the first, 204 °C for the second.

First: CCN(CC)CCNC(=O)c1cc(N)cc(C)c1OC
Second: CCOC(=O)ON(C(=O)NC)c1cc(Cl)ccc1Cl
The melting point of the first is lower: 56 to 57 °C for the first, 130 to 132 °C for the second.

First: CC1(O)CCC2(C)C(CCC3C2CCC2(C)C(C(=O)COc4ccc([N+](=O)[O-])cc4)CCC32)C1 (stereo unspecified)
Second: C#Cc1ccc(CO[C@@H]2COc3nc([N+](=O)[O-])cn3C2)nc1
The melting point of the first is higher: 169 to 172 °C for the first, 135 to 136 °C for the second.

First: CC(C)(C)OC(=O)CN1CCN(CC(=O)O)C1=O
Second: COC(=O)c1[nH]cnc1CCNC(=O)[C@H](Cc1ccccc1)NC(=O)[C@H](Cc1ccccc1)NC(=O)OC(C)(C)C
The melting point of the first is lower: 112 to 113 °C for the first, 155 to 159 °C for the second.

First: CC(C)CC(CC(=O)NO)C(=O)N[C@H]1Cc2cn(c3ccccc23)CCCCCCCNC1=O (stereo partly specified)
Second: O=C(Nc1ccccc1S(=O)(=O)N1CCCCC1)N[C@@H](Cc1ccc(NC(=O)c2c(Cl)cncc2Cl)cc1)C(=O)O
The melting point of the first is lower: 197 to 201 °C for the first, 223 °C for the second.

Compared with Nc1c(F)c(F)nc(F)c1Cl, Cc1cc(S)n2nc(N)nc2n1 is higher in melting point: 118 to 120 °C for the first, over 300 °C for the second.

First: NC(=O)c1ccc(F)c2c1C=CCO2
Second: COC(=O)c1cc(F)ccc1Nc1ccnc2cc(Cl)ccc12
The melting point of the first is higher: 189 to 190 °C for the first, 180 °C for the second.

First: COc1cc2c(cc1S(=O)(=O)Cl)CCC2
Second: COc1ccc2c(c1)CCC(N(C)c1ccc(O)cc1)C2 (stereo unspecified)
The melting point of the first is lower: 75 to 77 °C for the first, 79 to 82 °C for the second.

Compared with CCCn1cc2c(C3C(=O)Nc4ccc(Br)cc43)nc(NCCCN)nc2n1 (stereo unspecified), O=S(=O)(c1ccc(Br)cc1)N1CCNCC1 is lower in melting point: over 300 °C for the first, 102 to 104 °C for the second.

For O=C(NCC1CC1)NCC1CC1, the melting point was 127 to 130 °C.
